According to PMC4629797 (Organic & biomolecular chemistry, 2015):

Tests used:
20S proteasome = conditions: potency comparable to belactosins A and C; cited from earlier work
[1] = tested on: MCF-7 cell line (breast cancer); test: Cytotoxicity, standard MTT colorimetric assay, MCF-7; assay type: cell-based; conditions: read-out: IC50 MCF-7, MCF-7 breast cancer cells
[2] = tested on: MCF10A cell line (normal breast epithelial cells); test: Cytotoxicity, standard MTT colorimetric assay, MCF10A; assay type: cell-based; conditions: read-out: IC50 MCF10A

| Compound | activity as 20S proteasome inhibitors (20S proteasome) | IC50 [1] | IC50 [2] |
| --- | --- | --- | --- |
| CC[C@H](C)[C@H](NC(=O)[C@@H](NC(=O)C1OC(=O)C1C(C)C)C(C)C)C(=O)O (single isomer, unassigned; (-)) [(−)-1, cystargolide A] | exhibited activity as 20S proteasome inhibitors | 58 ± 9.5 µM | > 100 µM |
| CC(C)C1C(=O)OC1C(=O)N[C@H](C(=O)N[C@H](C(=O)O)C(C)C)C(C)C (single isomer, unassigned; (-)) [(−)-2, cystargolide B] | exhibited activity as 20S proteasome inhibitors | 84.7 ± 18.6 µM | > 100 µM |
